This is an account of results in EP0562497A1, “1 alpha-hydroxy vitamins D7 and D4' processes for the preparation thereof and pharmaceutical compositions” (NISSHIN FLOUR MILLING CO., LTD., priority 1992, dated 1993).

For the series, the system named is Female Wistar rats. Put plainly: Activity test in ovariectomized, right sciatic nerve amputated rats: femur bone density and serum calcium after 6 weeks of oral administration. It counts as in vivo. The following applies: for Serum calcium concentration / Bone density: 5 days per week for 6 weeks; for Serum calcium concentration: blood drawn the day after final administration; for Bone density: right femur, ash weight/volume, ovariectomy and sciatic nerve amputation; for increase in bone density / increase in serum calcium concentration: in words, compared with known 1α-hydroxy vitamin D₃, summary of Table 1. An excerpt:
Seventy two rats were subjected to bilateral ovariectomy and right sciatic nerve amputation. Rats were divided into 9 groups of eight animals each. Another group of eight rats was subjected to sham operation. Over a period of 6 weeks after operation, each group was orally administered either 1α-hdyroxy vitamin D₃, 1α-hydroxy vitamin D₇ or 1α-hydroxy vitamin D₄ dissolved in 0.5% ethanol/porpyleneglycol (vehicle) at the frequency of 5 days per week. The sham operated group and control group were orally administered the vehicle alone. The next day after final administration, rats were killed, blood was drawn from abdominal cave and right femur was extracted. The bone volume of femur was measured in accordance with Archimedes' principle. After heat treatment at 700°C for 24 hrs, the weight of bone ash was measured. From these measured values, the bone density (ash weight/volume) of each femur was calculated. Serum calcium concentration was determined according to usual method.

Regarding `C=C1/C(=C\C=C2/CCC[C@]3(C)[C@@H]([C@H](C)CC[C@@H](C)C(C)C)CC[C@@H]23)C[C@@H](O)C[C@@H]1O` [1α-OH-D7, 1α-hydroxy vitamin D₇], the “increase in bone density” value is reported as “much greater increase in bone density” and the “increase in serum calcium concentration” value was “lesser increase in serum calcium concentration”. Besides, where the note is “0.5 µg/kg/day oral”, the Serum calcium concentration was found to be 10.5 ± 0.1 mg/dL and the Bone density is on record as 0.581±0.004 mg/mm^3. For the same molecule, where the note is “2.5 µg/kg/day oral”, the Serum calcium concentration amounted to 10.7 ± 0.3 mg/dL and the Bone density is reported as 0.585±0.007 mg/mm^3. For the same molecule, where the note is “12.5 µg/kg/day oral”, the Serum calcium concentration worked out at 10.9 ± 0.5 mg/dL and the Bone density was found to be 0.589±0.004 mg/mm^3.

Consider `C=C1/C(=C\C=C2/CCC[C@]3(C)[C@@H]([C@H](C)CC[C@H](C)C(C)C)CC[C@@H]23)C[C@@H](O)C[C@@H]1O` [1α-OH-D4, 1α-hydroxy vitamin D₄], for which the “increase in bone density” value is listed as “much greater increase in bone density” and the “increase in serum calcium concentration” value is “lesser increase in serum calcium concentration”. Moreover, under “0.5 µg/kg/day oral”, the Serum calcium concentration was determined as 10.5 ± 0.2 mg/dL and the Bone density worked out at 0.576±0.006 mg/mm^3. Moreover, under “2.5 µg/kg/day oral”, the Serum calcium concentration was found to be 11.0 ± 0.4 mg/dL and the Bone density was 0.583 ± 0.003 mg/mm^3.

As for `C=C1/C(=C\C=C2/CCC[C@]3(C)[C@@H]([C@H](C)CCCC(C)C)CC[C@@H]23)C[C@@H](O)C[C@@H]1O` [1α-OH-D3, 1α-hydroxy vitamin D₃, reference compound], the Serum calcium concentration reads like this: (0.02 µg/kg/day oral) 10.8 ± 0.1 mg/dL; (0.1 µg/kg/day oral) 11.0 ± 0.1 mg/dL; (0.5 µg/kg/day oral) 12.4 ± 0.2 mg/dL. Moreover, the Bone density worked out at 0.556±0.005 mg/mm^3 (0.02 µg/kg/day oral), 0.545±0.007 mg/mm^3 (0.1 µg/kg/day oral) and 0.560±0.006 mg/mm^3 (0.5 µg/kg/day oral).
